Assay results published in PMC3119665, “A New Drug Design Targeting the Adenosinergic System for Huntington's Disease” (PLoS ONE, 2011).

Legend:
Bombesin BB3 = target: T1, Bombesin BB3 (Homo sapiens, UniProt P32247); test: Radioligand binding panel (Table S1); conditions: 10 μM T1-11, n 2
T1 construct: purchased MDS Pharma Services Taiwan

[1] = target: T2, Calcitonin Gene-Related, Peptide CGRP1 (Homo sapiens, UniProt O60894+Q16602); test: Radioligand binding panel (Table S1); conditions: 10 μM T1-11, n 2
T2 construct: purchased MDS Pharma Services Taiwan

Dopamine D4.4 = target: T3, Dopamine D4.4 (Homo sapiens, UniProt P21917); test: Radioligand binding panel (Table S1); conditions: 10 μM T1-11, n 2
T3 construct: purchased MDS Pharma Services Taiwan
T3 sequence (P21917 whole entry): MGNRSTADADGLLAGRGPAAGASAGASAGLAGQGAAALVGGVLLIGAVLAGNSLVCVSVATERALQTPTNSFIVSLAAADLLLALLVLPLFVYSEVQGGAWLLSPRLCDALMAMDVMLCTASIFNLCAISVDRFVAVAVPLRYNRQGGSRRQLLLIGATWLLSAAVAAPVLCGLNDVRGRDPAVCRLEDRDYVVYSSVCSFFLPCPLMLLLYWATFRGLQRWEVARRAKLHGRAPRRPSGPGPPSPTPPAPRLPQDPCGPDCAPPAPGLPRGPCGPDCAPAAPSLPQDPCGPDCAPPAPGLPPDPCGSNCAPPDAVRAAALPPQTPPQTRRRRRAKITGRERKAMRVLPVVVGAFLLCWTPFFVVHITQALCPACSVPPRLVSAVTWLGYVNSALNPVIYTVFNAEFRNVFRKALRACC

GABAA, Agonist Site = test: Radioligand binding panel (Table S1); set-up: species or system rat; conditions: 10 μM T1-11, n 2
Muscarinic M2 = target: T4, Muscarinic M2 (Homo sapiens, UniProt P08172); test: Radioligand binding panel (Table S1); conditions: 10 μM T1-11, n 2
T4 construct: purchased MDS Pharma Services Taiwan

Opiate δ (OP1, DOP) = target: T5, Opiate δ (OP1, DOP) (Homo sapiens, UniProt P41143); test: Radioligand binding panel (Table S1); conditions: 10 μM T1-11, n 2
T5 construct: purchased MDS Pharma Services Taiwan
T5 sequence (P41143 whole entry): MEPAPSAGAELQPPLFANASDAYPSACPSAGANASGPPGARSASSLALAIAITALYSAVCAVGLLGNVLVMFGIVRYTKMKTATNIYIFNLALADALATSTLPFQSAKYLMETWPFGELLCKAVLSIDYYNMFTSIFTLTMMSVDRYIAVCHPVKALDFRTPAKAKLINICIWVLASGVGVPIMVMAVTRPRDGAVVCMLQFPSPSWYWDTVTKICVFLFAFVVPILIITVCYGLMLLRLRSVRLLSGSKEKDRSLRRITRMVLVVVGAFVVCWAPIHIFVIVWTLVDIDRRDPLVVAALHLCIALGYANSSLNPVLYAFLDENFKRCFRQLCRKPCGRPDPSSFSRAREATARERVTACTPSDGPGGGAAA

Opiate μ (OP3, MOP) = target: T6, Opiate μ (OP3, MOP) (Homo sapiens, UniProt P35372); test: Radioligand binding panel (Table S1); conditions: 10 μM T1-11, n 2
T6 construct: purchased MDS Pharma Services Taiwan
T6 sequence (P35372 whole entry): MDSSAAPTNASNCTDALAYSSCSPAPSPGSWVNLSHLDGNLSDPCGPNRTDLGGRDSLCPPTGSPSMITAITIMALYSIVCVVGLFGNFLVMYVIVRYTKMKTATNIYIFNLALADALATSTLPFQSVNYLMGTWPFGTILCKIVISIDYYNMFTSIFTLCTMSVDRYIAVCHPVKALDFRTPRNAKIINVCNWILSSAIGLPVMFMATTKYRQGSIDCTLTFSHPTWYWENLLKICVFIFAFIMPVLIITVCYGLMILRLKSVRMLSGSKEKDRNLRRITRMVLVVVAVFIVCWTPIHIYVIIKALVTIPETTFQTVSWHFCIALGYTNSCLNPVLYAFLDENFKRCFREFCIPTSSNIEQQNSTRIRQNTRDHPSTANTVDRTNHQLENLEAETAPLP

Orexin OX 2 = target: T7, Orexin OX 2 (Homo sapiens, UniProt O43614); test: Radioligand binding panel (Table S1); conditions: 10 μM T1-11, n 2
T7 construct: purchased MDS Pharma Services Taiwan
T7 sequence (O43614 whole entry): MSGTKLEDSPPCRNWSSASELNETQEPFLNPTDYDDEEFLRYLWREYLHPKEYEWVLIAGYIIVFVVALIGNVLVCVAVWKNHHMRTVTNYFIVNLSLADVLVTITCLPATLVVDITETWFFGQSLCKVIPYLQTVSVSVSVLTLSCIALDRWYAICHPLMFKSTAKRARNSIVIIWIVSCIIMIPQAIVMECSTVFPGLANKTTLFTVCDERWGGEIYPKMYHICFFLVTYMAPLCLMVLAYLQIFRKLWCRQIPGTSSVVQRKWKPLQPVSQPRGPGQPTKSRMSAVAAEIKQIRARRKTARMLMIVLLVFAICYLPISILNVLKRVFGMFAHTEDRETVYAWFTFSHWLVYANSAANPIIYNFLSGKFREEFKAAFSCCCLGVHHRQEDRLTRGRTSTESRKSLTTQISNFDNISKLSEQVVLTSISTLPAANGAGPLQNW

Phosphodiesterase PDE4 = test: Radioligand binding panel (Table S1); set-up: species or system human; conditions: 10 μM T1-11, n 2
Progesterone PR-B = target: T8, Progesterone PR-B (Homo sapiens, UniProt P06401); test: Radioligand binding panel (Table S1); conditions: 10 μM T1-11, n 2
T8 construct: purchased MDS Pharma Services Taiwan

Somatostatin sst3 = target: T9, Somatostatin sst3 (Homo sapiens, UniProt P32745); test: Radioligand binding panel (Table S1); conditions: 10 μM T1-11, n 2
T9 construct: purchased MDS Pharma Services Taiwan
T9 sequence (P32745 whole entry): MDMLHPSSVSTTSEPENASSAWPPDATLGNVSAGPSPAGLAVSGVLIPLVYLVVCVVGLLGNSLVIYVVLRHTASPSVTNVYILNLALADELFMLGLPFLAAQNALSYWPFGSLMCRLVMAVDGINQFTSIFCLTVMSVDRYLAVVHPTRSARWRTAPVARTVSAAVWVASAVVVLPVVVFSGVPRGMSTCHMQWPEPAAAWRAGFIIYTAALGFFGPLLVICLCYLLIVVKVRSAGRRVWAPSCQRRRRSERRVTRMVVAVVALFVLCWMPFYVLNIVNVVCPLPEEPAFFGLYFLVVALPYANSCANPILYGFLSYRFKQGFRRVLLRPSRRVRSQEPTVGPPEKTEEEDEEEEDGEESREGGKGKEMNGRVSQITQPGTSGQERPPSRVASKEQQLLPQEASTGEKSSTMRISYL

Somatostatin sst4 = target: T10, Somatostatin sst4 (Homo sapiens, UniProt P31391); test: Radioligand binding panel (Table S1); conditions: 10 μM T1-11, n 2
T10 construct: purchased MDS Pharma Services Taiwan

Tachykinin NK3 = target: T11, Tachykinin NK3 (Homo sapiens, UniProt P29371); test: Radioligand binding panel (Table S1); conditions: 10 μM T1-11, n 2
T11 construct: purchased MDS Pharma Services Taiwan
T11 sequence (P29371 whole entry): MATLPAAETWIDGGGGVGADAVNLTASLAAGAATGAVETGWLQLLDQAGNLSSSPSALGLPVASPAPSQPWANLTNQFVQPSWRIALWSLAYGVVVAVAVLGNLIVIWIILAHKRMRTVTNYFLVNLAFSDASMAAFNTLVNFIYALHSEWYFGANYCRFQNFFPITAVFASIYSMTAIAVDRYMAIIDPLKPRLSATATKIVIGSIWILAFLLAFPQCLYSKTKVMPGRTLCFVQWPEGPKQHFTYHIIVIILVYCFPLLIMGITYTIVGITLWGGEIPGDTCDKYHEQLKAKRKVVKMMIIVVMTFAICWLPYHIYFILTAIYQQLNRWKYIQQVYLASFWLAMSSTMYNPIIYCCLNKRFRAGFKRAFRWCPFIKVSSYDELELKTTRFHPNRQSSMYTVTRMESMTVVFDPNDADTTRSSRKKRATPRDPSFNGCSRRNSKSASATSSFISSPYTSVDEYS

[2] = target: T12, Adenosine transporter (ENT1) (Cavia porcellus, UniProt H0V4R7); test: Radioligand binding assay; set-up: species or system guinea pig
T12 construct: Membrane fractions collected from the cerebral cortex of Duncan Hartley derived guinea pigs; tissue MDS Pharma Services Taiwan; host or cells: guinea pig cerebral cortex
T12 sequence (H0V4R7 1-461): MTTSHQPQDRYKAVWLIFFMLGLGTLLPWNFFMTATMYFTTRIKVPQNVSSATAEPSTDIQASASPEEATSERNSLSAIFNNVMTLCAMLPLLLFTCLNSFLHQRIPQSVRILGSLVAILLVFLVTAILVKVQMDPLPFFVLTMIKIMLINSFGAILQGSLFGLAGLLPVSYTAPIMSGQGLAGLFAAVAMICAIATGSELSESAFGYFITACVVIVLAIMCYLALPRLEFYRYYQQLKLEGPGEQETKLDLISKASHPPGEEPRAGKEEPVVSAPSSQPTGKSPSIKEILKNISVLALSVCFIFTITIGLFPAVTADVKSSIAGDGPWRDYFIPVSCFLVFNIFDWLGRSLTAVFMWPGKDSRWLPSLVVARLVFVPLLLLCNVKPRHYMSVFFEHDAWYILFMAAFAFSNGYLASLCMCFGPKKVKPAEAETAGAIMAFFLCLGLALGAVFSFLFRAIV

Transporter, Monoamine = test: Radioligand binding panel (Table S1); set-up: species or system rabbit; conditions: 10 μM T1-11, n 2
[3] = target: T13, Transporter, Norepinephrine (NET) (Homo sapiens, UniProt P23975); test: Radioligand binding panel (Table S1); conditions: 10 μM T1-11, n 2
T13 construct: purchased MDS Pharma Services Taiwan
T13 sequence (P23975 whole entry): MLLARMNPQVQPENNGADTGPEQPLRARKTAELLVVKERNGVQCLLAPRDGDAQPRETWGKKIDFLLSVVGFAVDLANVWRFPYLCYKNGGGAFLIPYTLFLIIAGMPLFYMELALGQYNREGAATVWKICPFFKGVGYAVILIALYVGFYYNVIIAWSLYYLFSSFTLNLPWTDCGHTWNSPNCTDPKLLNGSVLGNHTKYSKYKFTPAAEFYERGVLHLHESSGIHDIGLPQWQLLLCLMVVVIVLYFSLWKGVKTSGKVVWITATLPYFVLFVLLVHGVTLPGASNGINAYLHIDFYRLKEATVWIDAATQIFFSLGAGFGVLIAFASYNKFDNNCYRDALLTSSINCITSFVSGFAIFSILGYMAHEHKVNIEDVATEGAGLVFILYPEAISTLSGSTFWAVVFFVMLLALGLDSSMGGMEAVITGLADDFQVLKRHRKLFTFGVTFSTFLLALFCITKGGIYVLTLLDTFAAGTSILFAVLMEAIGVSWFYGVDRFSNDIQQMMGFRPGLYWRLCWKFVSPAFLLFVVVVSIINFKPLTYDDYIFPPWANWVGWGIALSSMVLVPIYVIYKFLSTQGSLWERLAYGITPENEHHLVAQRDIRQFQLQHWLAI

[4] = target: T14, Transporter, Serotonin (5-Hydroxytryptamine) (SERT) (Homo sapiens, UniProt P31645); test: Radioligand binding panel (Table S1); conditions: 10 μM T1-11, n 2
T14 construct: purchased MDS Pharma Services Taiwan
T14 sequence (P31645 whole entry): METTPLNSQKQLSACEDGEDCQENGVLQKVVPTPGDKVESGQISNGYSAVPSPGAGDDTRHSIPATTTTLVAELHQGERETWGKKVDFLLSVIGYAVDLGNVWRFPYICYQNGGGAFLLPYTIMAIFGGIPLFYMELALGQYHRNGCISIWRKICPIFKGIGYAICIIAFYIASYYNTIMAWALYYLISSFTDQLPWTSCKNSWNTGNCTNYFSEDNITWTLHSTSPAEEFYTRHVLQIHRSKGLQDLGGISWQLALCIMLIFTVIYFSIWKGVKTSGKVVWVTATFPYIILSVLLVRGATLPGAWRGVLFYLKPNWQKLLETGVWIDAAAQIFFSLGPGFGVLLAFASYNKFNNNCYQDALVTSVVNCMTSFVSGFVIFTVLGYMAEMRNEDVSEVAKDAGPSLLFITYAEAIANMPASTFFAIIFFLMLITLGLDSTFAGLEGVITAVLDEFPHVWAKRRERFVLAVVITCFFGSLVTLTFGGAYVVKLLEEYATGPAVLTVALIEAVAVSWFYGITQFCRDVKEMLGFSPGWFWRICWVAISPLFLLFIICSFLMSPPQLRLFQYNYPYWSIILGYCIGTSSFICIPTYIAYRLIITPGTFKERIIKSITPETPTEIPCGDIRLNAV

[5] = test system: Vascular Endothelial Growth Factor (VEGF); test: Radioligand binding panel (Table S1); set-up: species or system human; conditions: 10 μM T1-11, n 2
Vasopressin V1A = target: T15, Vasopressin V1A (Homo sapiens, UniProt P37288); test: Radioligand binding panel (Table S1); conditions: 10 μM T1-11, n 2
T15 construct: purchased MDS Pharma Services Taiwan
T15 sequence (P37288 whole entry): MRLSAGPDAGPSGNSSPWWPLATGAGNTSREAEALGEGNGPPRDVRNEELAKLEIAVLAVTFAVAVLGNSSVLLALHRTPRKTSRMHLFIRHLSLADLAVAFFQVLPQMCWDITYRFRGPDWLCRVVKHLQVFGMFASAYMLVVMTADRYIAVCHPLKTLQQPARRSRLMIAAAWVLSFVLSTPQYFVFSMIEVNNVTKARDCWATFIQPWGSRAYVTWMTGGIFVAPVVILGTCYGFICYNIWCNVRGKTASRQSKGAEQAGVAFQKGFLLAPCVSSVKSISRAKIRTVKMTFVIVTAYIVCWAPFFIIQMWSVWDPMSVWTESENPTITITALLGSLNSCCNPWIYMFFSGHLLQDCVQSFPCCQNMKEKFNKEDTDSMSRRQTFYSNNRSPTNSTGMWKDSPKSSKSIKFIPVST

[6] = target: T16, adenosine transporter (ENT1) (Rattus norvegicus, UniProt O54698); test: Adenosine uptake by PC12 cells; type: cell-based
T16 construct: endogenous in cells; host or cells: PC12
T16 sequence (O54698 whole entry): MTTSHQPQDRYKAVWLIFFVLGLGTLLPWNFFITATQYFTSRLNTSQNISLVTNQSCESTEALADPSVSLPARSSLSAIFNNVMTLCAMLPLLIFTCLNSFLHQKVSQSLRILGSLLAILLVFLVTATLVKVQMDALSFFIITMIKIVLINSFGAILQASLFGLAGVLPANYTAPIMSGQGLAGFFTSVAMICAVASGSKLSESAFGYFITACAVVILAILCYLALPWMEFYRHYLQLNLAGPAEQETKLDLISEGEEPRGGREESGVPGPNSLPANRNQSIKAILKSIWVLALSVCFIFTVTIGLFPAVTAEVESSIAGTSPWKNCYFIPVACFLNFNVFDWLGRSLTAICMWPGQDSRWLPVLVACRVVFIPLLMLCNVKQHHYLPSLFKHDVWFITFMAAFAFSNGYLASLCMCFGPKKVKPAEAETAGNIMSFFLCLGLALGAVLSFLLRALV
Description: For adenosine uptake of PC12, cells were seeded approximately 16 h before each uptake assay at ∼2×10^5 cells per well in 24-well plates coated with poly-L-lysine. To perform adenosine uptake assays, cells were washed with Krebs Ringer-Henseleit buffer [125 mM NaCl, 4.8 mM KCl, 1.3 mM CaCl2, 1.2 mM MgSO4, 1.2 mM KH2PO4, 5.6 mM glucose, 10 µM pargyline, and 10 mM HEPES (pH 7.2)] and incubated in the same buffer for 10 min at 37°C in the presence or absence of the indicated reagent(s). Adenosine uptake was initiated by adding [^3H]adenosine at the indicated concentration (0.5 µCi/mmol) at 37°C. At the end of the incubation, cells were placed on ice, washed twice with ice-cold Krebs Ringer-Henseleit buffer to remove free [^3H]adenosine, lysed with 1% Triton X-100, and added to scintillation vials to count the radioactivity. Non-specific uptake was determined as the uptake performed in the presence of 100 µM adenosine, and was subtracted from the total adenosine uptake.

BDNF = test: Cortical BDNF transcript, quantitative RT-PCR; type: in vivo; conditions: R6/2 mice, 0.05 mg/ml in drinking water
Description: Total RNA was isolated from the cortex of the indicated mice using the TriReagent kit (Molecular Research Center, Cincinnati, OH, USA), treated with RNase-free DNase (RQ1; Promega) to remove potential contamination by genomic DNA, and transcribed into complementary (c)DNA using Superscript* II reverse transcriptase. A real-time quantitative PCR was performed using a TaqMan kit (PE Applied Biosystems, Foster City, CA, USA) on a TaqMan ABI 7700 Sequence Detection System (PE Applied Biosystems) using heat-activated TaqDNA polymerase (Amplitaq Gold; PE Applied Biosystems). The PCR mixtures were incubated at 50°C for 2 min and 95°C for 10 min, and then 40 PCR cycles were conducted (95°C for 15 s and 65°C for 1 min). The sequences of primers are listed below: for BDNF (the target gene), 5′-[…]-3′ and 5′-[…]-3′; and for GAPDH (the reference gene), 5′[…]-3′ and 5′-[…]-3′. Independent reverse-transcription PCRs were performed using the same cDNA for both the indicated target gene and reference gene (GAPDH). […] Data were analyzed using ABI 7700 operating software to determine the threshold cycle (CT) above the background for each reaction. The relative transcript amount of the target gene, which was calculated using standard curves of serial RNA dilutions, was normalized to that of GAPDH of the same RNA.

[7] = guinea pig cerebral cortex membranes, 3H-NBTI 0.5 nM

## OC[C@H]1O[C@@H](n2cnc3c(NCc4ccc(O)cc4)ncnc32)[C@H](O)[C@@H]1O [T1-11, N ^6-(4-hydroxybenzyl)adenine riboside]
Bombesin BB3
  inhibition at 10 µM: 12%
[1]
  inhibition at 10 µM: 6%
Dopamine D4.4
  inhibition at 10 µM: 8%
GABAA, Agonist Site
  % Inhibition: 4%
Muscarinic M2
  inhibition at 10 µM: 4%
Opiate δ (OP1, DOP)
  inhibition at 10 µM: 19%
Opiate μ (OP3, MOP)
  inhibition at 10 µM: 5%
Orexin OX 2
  inhibition at 10 µM: -7%
Phosphodiesterase PDE4
  % Inhibition: 0%
Progesterone PR-B
  inhibition at 10 µM: -8%
Somatostatin sst3
  inhibition at 10 µM: 15%
Somatostatin sst4
  inhibition at 10 µM: 5%
Tachykinin NK3
  inhibition at 10 µM: -3%
[2]; 10 μM T1-11, n 2
  inhibition at 10 µM: 84%
[2]; [7]
  IC50: 1570 nM
  Ki: 540 nM
Transporter, Monoamine
  % Inhibition: -6%
[3]
  inhibition at 10 µM: 6%
[4]
  inhibition at 10 µM: 5%
[5]
  % Inhibition: 16%
Vasopressin V1A
  inhibition at 10 µM: 0%
[6]; Adenosine transporter (ENT1), suppressed the uptake of adenosine
  Function: inhibitor
[6]; PC12 cells
  Inhibition of adenosine uptake: inhibited adenosine uptake by PC12 cells in a dose-dependent manner
BDNF
  Cortical BDNF: contained more cortical BDNF than R6/2 mice that received no treatment
